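Each compound was tested at five concentrations against cells in 96-well plates for 48 hours. TGI is the concentration that stops growth completely.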 Where a SMILES comes first, the peptide text is derived from it. The star is where a group is joined. Boc = CC(C)(C)OC(=O)*

Here are results for eight molecules from PubChem BioAssay (NCI).

Among the test systems are 786-0 renal; A498 renal; DU-145 prostate; IGROV1 ovarian; KM12 colon; NCI-H226 lung; NCI-H23 lung; OVCAR-5 ovarian; RPMI-8226 leukemia; SF-268 CNS; T-47D breast; HCC-2998 colon; BT-549 breast; HS 578T breast.
Common to all, as to experiment: NCI-60 cell line screen, 48 h

As to `CCC(C)C1=C(O)[N+]2([O-])Oc3ccc(-c4c(O)c(O)c(-c5ccc(O)cc5)c(OC(C)=O)c4OC(C)=O)cc3OC2(C(C)CC)C(=O)N1O` (stereo not drawn), the TGI with 786-0 renal, in the assay with A498 renal, in the assay with DU-145 prostate, in the assay on IGROV1 ovarian, in the assay on KM12 colon and with NCI-H226 lung was over 50 µM throughout. The TGI in the assay on NCI-H23 lung, in the assay on OVCAR-5 ovarian, in the assay with RPMI-8226 leukemia, in the assay with SF-268 CNS and in the assay on T-47D breast was over 50 µM in each case.

Consider `COC1/C=C/C(C)C(C(C)C(OC)C(C)CCC(=O)C(C)C(CC(=O)O)OC)OC(=O)/C=C/C=C(\C)CC(OC)C(OC)C2=CC(=O)O[C@@H](C(C)C(OC)CC(OC)/C=C/C(C)C(O)C1)[C@H]2O` (stereo partly drawn), for which the TGI was 0.12 µM in the assay on 786-0 renal; 0.365 µM in the assay on A498 renal; over 1.07 µM with DU-145 prostate; over 1.07 µM in the assay with HCC-2998 colon; 0.0297 µM with IGROV1 ovarian; over 1.07 µM in the assay on KM12 colon. The TGI in the assay on NCI-H226 lung was 0.127 µM; with NCI-H23 lung it was 0.722 µM; with OVCAR-5 ovarian, over 1.07 µM; in the assay on RPMI-8226 leukemia, over 1.07 µM; in the assay on SF-268 CNS, 0.157 µM; with T-47D breast it was 0.981 µM.

With `C=C[C@@]1(C)CC(=O)[C@]2(O)[C@@]3(C)[C@@H](OC(C)=O)CCC(C)(C)[C@@H]3[C@H](O)[C@H](OC(C)=O)[C@@]2(C)O1`, the TGI in the assay on 786-0 renal, in the assay on A498 renal, in the assay with BT-549 breast, in the assay on DU-145 prostate, with HCC-2998 colon and in the assay on IGROV1 ovarian was over 100 µM in each case. In addition, the TGI with KM12 colon, with NCI-H226 lung, with NCI-H23 lung, with OVCAR-5 ovarian and with T-47D breast was over 100 µM each time.

As to `CCOC(=O)CCN1C(=O)c2ccc(NC(=O)C(=O)O)cc2S1(=O)=O`, the TGI in the assay with 786-0 renal, in the assay on A498 renal, in the assay with BT-549 breast, in the assay on DU-145 prostate, in the assay on HCC-2998 colon and in the assay with HS 578T breast was over 100 µM in each case. Moreover, the TGI with IGROV1 ovarian, in the assay on KM12 colon, with NCI-H226 lung, in the assay on NCI-H23 lung, in the assay on OVCAR-5 ovarian and in the assay with RPMI-8226 leukemia was over 100 µM throughout.

As for `O=C1CCCSCCCC(=O)CCCSCCC1`, the TGI in the assay on 786-0 renal, with BT-549 breast, in the assay on DU-145 prostate, in the assay with HCC-2998 colon, with IGROV1 ovarian and with KM12 colon was over 100 µM throughout. Moreover, the TGI in the assay with NCI-H23 lung, in the assay with OVCAR-5 ovarian, with SF-268 CNS and in the assay with T-47D breast was over 100 µM each time.

Turning to `COC(=O)C(Cc1c[nH]c2ccccc12)NC(=O)C(Cc1c[nH]c2ccccc12)NC(=O)C(Cc1c[nH]c2ccccc12)NC(=O)C(Cc1c[nH]c2ccccc12)NC(=O)C(Cc1c[nH]c2ccccc12)NC(=O)OC(C)(C)C` (stereo not drawn) (Boc-WWWWW-OMe; configuration not given here), the TGI in the assay on 786-0 renal, in the assay with BT-549 breast, in the assay on DU-145 prostate, in the assay with HCC-2998 colon, with IGROV1 ovarian and in the assay on NCI-H226 lung was over 100 µM in each case. In addition, the TGI in the assay with NCI-H23 lung, with OVCAR-5 ovarian, with RPMI-8226 leukemia, in the assay on SF-268 CNS and in the assay with T-47D breast was over 100 µM throughout.

On to `Nc1ccc2c(c1)N(C(=O)CCCC(=O)N1CC(CCl)c3ccc(N)cc31)CC2CCl` (stereo not drawn), for which the TGI in the assay on 786-0 renal was over 29.7 µM; in the assay on A498 renal, 3.47 µM; with BT-549 breast, 6.53 µM; in the assay with DU-145 prostate, over 21 µM; with HCC-2998 colon it was over 50 µM; in the assay on HS 578T breast it was 1.94 µM. For the same molecule, the TGI in the assay on IGROV1 ovarian is over 11.3 µM; in the assay with KM12 colon, 3.99 µM; in the assay with NCI-H226 lung it was over 50 µM; in the assay with NCI-H23 lung, 4.16 µM; in the assay on OVCAR-5 ovarian it was over 41.3 µM; in the assay with RPMI-8226 leukemia, over 10.2 µM. This molecule showed a TGI in the assay with SF-268 CNS of 3.31 µM.

As to `Nc1nc([O-])c([I+]c2ccccc2)c(=O)[nH]1`, the TGI in the assay on 786-0 renal, with A498 renal, in the assay on BT-549 breast, in the assay on DU-145 prostate, with HCC-2998 colon and with HS 578T breast was over 100 µM each time. The TGI in the assay with IGROV1 ovarian, in the assay on KM12 colon, in the assay on NCI-H226 lung, in the assay with NCI-H23 lung, in the assay with OVCAR-5 ovarian and in the assay with RPMI-8226 leukemia was over 100 µM in each case. The TGI in the assay on SF-268 CNS is over 100 µM.
